For this experiment, the target named is Induced myeloid leukemia cell differentiation protein Mcl-1 (Homo sapiens) (UniProt Q07820). Kind of experiment: Mcl-1/Bim interaction regulators – biochemical, bead-based flow cytometry, multiplexed, human, dose response (AID 1329). The settings on record: Bim peptide-Mcl-1 binding, MCF. In general terms: In flow cytometry, cells or beads pass a laser one at a time.

The source made the active and inactive calls. The rule behind the calls is not given here.

Sequence of Induced myeloid leukemia cell differentiation protein Mcl-1 (Homo sapiens) (Q07820 whole entry, looked up): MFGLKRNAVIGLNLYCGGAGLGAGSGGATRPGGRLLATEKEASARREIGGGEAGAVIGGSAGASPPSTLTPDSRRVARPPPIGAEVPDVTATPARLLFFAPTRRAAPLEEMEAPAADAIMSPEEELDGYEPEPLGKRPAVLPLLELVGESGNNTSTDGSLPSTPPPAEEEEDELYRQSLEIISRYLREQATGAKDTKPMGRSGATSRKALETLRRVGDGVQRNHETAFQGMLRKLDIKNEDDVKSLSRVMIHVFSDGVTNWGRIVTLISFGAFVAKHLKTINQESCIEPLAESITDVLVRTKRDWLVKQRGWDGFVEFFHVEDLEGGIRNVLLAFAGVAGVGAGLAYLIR

For `CC(C)c1ccc(C2CC(c3ccc(Br)cc3)=NN2C(N)=S)cc1` (configuration not stated), the percent span result was “inactive”. Take `Cc1ccc(/C=C2/NC(=O)N(Cc3ccc(Br)cc3)C2=O)o1`: the percent span entry is “inactive”. Turning to `CCc1cccc(NC(=O)COc2ccccc2)c1`, the percent span result was “inactive”. Turning to `CC(=O)c1ccc2c(c1)C1C=CCC1C(c1ccncc1)N2` (configuration not stated), the percent span entry is “inactive”. Consider `Cc1ccc(NC(=O)CSc2nc3ccccc3c(=O)n2CCCN2CCCCC2)cc1Cl`, for which the percent span result was “inactive”. For `CCN(CC)c1nc(N)nc(N(c2ccccc2)c2ccccc2)n1` the value was “inactive”; for `O=C(Nc1ccc2nc(-c3ccco3)c(-c3ccco3)nc2c1)N1CCCCCC1`, “inactive”.

For the compound `Cc1cc(N2CCN(C)CC2)nc2ccc(NC(=S)N3CCN(c4ccc(F)cc4)CC3)cc12`, the percent span result is “inactive”. As to `COc1ccc(C(=O)Nc2ccc(NC(=O)c3cccs3)cc2)cc1Cl`, the percent span entry was “inactive”.

As to `Cn1c(N)c(C(=O)COC(=O)c2cncc(Br)c2)c(=O)n(C)c1=O`, the percent span result was “inactive”.

Regarding `CCCCCCc1cc2cc(C(=O)Nc3ccccc3)c(=O)oc2cc1O`, the percent span entry was “inactive”.

For `CSc1n[nH]c2nc3c(c(=O)n12)C1(CCCC1)Cc1ccccc1-3`, the percent span entry was “inactive”. Then `O=[N+]([O-])c1c(NCCO)cc(Sc2nc3ccccc3s2)c2nonc12`, with “inactive”.

On to `CN1C2C=C3C(C#N)=C(N)C(C#N)(C#N)[C@@H](c4ccsc4)[C@@H]3C1CC2` (some centres not stated), for which the percent span result was “inactive”. Then `COc1ccc2c3c(cccc13)N(C)N=C2C`, with “inactive”; and `O=C1NCCN1C(=O)N(c1ccccc1)c1ccccc1`, with “inactive”.

As to `Cc1cccc(N=C2NC(=O)/C(=C/C=C/c3ccco3)S2)c1C`, the percent span result was “inactive”. For `Cc1noc(C)c1CN1C(=O)NC(Cc2ccccc2)(Cc2ccccc2)C1=O` the value was “inactive”. Then `CCN=c1scc(C)n1/N=C/c1ccc(O)c(O)c1O`, with “inactive”; and `CN1CCc2cccc3c2[C@H]1Cc1ccc(O)c(O)c1-3`, with “inactive”; and `N#Cc1cccc(N=c2ssnc2Cl)c1`, with “inactive”. For `COc1cc(N2CCOCC2)ccc1C=C1C(=O)NC(=O)NC1=O` the value was “inactive”; for `CCOc1c(Cl)cc(CNc2ccc(N3CCCC3)cc2)cc1OC`, “inactive”; for `O=C1Nc2ccc([N+](=O)[O-])cc2OC1CCN1CCN(Cc2ccc3c(c2)OCO3)CC1` (configuration not stated), “inactive”. For the compound `O=C1N/C(=C/c2cccn2-c2ccccc2)C(=O)N1Cc1ccc(F)cc1`, the percent span entry was “inactive”. Then `Nc1cccc(-c2cn3cccnc3n2)c1`, with “inactive”; and `O=C(CNC(=O)c1ccc(S(=O)(=O)N2CCCC2)cc1)N/N=C/c1ccc(Cl)cc1Cl`, with “inactive”.

Take `Cc1ccc(Nc2nc(CSc3nnc(-c4cccnc4)n3-c3ccccc3C)cs2)cc1`: the percent span result is “inactive”.

For `CCOc1ccc(NCc2ccccc2OCc2cccc(F)c2)cc1`, the percent span result was “inactive”.

Consider `Cc1cc(NC(=O)CSc2nnc(-c3cccnc3)n2Cc2ccccc2)no1`, for which the percent span entry was “inactive”. In the case of `Cn1c(CNc2nc(-c3ccccc3)cs2)nnc1SCC(=O)N1CCc2ccccc21`, the percent span entry was “inactive”. Turning to `COc1ccccc1Nc1nc(-c2c(C)nc3ncccn23)cs1`, the percent span result was “inactive”.

On to `Cc1c(N2C(=O)c3ccc4c5c(ccc(c35)C2=O)CC4)c(=O)n(-c2ccccc2)n1C`, for which the percent span result was “inactive”. As to `COc1ccc(NC(=O)c2ccc(CN3CCN(c4ccccc4)CC3)cc2)cc1`, the percent span result was “inactive”. For `CCOC(=O)c1cc2c(=O)n3ccccc3nc2n(Cc2ccco2)c1=NC(=O)c1ccccc1OC`, the percent span result is “inactive”.

In the case of `S=C(Nc1ccccc1)N1CCn2cccc2C1c1cccnc1` (configuration not stated), the percent span result was “inactive”. Regarding `Cc1nn(-c2ccc(Cl)cc2)c(Cl)c1/C=C(\C#N)C(N)=O`, the percent span entry is “inactive”. As for `CC(C)n1nnnc1SCC(=O)N1CCN(C(=O)c2ccco2)CC1`, the percent span result is “inactive”. Turning to `Fc1ccccc1/C=C1\CCCC2=C1NC(=S)NC2c1ccccc1F` (configuration not stated), the percent span result was “inactive”. As for `COc1ccc(N2C(=O)C(Cl)=C(Nc3ccccc3O)C2=O)cc1`, the percent span result was “inactive”. Then `O=C(O)CCN1C(=O)/C(=C\c2ccc(-c3nc4ccccc4s3)o2)SC1=S`, with “inactive”; and `CCN1CCN(c2ccc(NC(=O)c3ccc4c(c3)[nH]c(=O)n4Cc3ccc(OC)cc3)cc2)CC1`, with “inactive”; and `Cc1ccnc(NS(=O)(=O)c2ccc(NS(=O)(=O)c3cccs3)cc2)n1`, with “inactive”. As to `CCCn1c(SCC(=O)Nc2ccccc2-c2ccccc2)nnc1-c1ccoc1C`, the percent span result was “inactive”.

For the compound `Cn1c(=O)c(C(=O)COC(=O)c2cc(-c3ccco3)nc3ccccc23)c(N)n(CC2CC2)c1=O`, the percent span result is “inactive”. For `Cc1cc(OCc2cn3cccnc3n2)ccc1Cl`, the percent span result is “inactive”. As for `O=C1C(Cl)=C(Nc2ccccc2O)C(=O)N1c1ccccc1`, the percent span result is “inactive”. On to `CCN1CCN(c2cc(C)c3cc(NC(=S)N4CC(C)CC(C)C4)ccc3n2)CC1` (configuration not stated), for which the percent span entry was “inactive”. `Cc1ccccc1OCC(=O)N/N=C/c1ccccn1`: the percent span result was “inactive”. Then `NCC(c1ccccc1)c1c[nH]c2ccccc12` (configuration not stated), with “inactive”. `CC(C)(C)c1nc(NCCN2CCOCC2)c2nnn(Cc3ccccc3Cl)c2n1`: the percent span entry was “inactive”.

For `Cc1cc(Cl)c(S(=O)(=O)NCC2CCCO2)cc1OCC(N)=O` (configuration not stated), the percent span result is “inactive”. As for `CCOC(=O)C1CCN(C(=O)Nc2ccc3nc(-c4ccco4)c(-c4ccco4)nc3c2)CC1`, the percent span result is “inactive”. For `CCOc1ccccc1CNc1ccc(O)cc1` the value was “inactive”; for `COc1ccc(-c2noc(COc3ccc4c(c3)OCO4)n2)cc1OC`, “inactive”. Turning to `O=C(C1=NN[C@@H]2C(=O)N(c3cccc(F)c3)C(=O)[C@H]12)c1ccc2ccccc2n1`, the percent span entry is “inactive”. `CNC(CC(=O)c1ccc([N+](=O)[O-])cc1)C(Cl)(Cl)Cl` (configuration not stated): the percent span result is “inactive”. For the compound `Cc1ccc(-c2cc(-c3ccccc3Cl)c(C#N)c(N)n2)o1`, the percent span result is “inactive”. For `COc1ccc(C(=S)N2CCCCCC2)cc1` the value was “inactive”; for `COc1ccc(-n2c(SCC(=O)Nc3ccc(C(=O)O)cc3)nnc2-c2cccs2)cc1`, “inactive”. For the compound `COc1c(F)c(F)c(C(=O)Nc2ccccc2N2CCN(C(=O)C(C)C)CC2)c(F)c1F`, the percent span entry is “inactive”.

As to `Cc1cccc(NC(=S)N2CCn3cccc3C2c2cccnc2)c1` (configuration not stated), the percent span entry is “inactive”. Consider `NC(=O)c1c(N)sc2c1CCCCC2`, for which the percent span result was “inactive”.

Turning to `c1coc(C2=Nc3cccc4cccc(c34)N2)c1`, the percent span result was “inactive”. For `CCOc1ccc2nc(SCC(=O)N3c4ccccc4Sc4ccccc43)c(C#N)cc2c1` the value was “inactive”; for `NC(=O)c1c(NC(=O)C2CCCO2)sc2c1CCCC2` (configuration not stated), “inactive”; for `CC(C)CCN1CCN(Cc2cccc3cccnc23)CC1CCO` (configuration not stated), “inactive”. `Cc1ccc(C(NC(=O)C(C)C)c2cc([N+](=O)[O-])c3cccnc3c2O)cc1` (configuration not stated): the percent span result was “inactive”.

As for `CCN1/C(=C\c2ccc3cc(C)ccc3[n+]2CC)Sc2cc(C)c(C)cc21`, the percent span result was “inactive”. On to `CN(Cc1cccs1)C(=O)CCc1c[nH]c2ccccc12`, for which the percent span entry was “inactive”. For `Cc1ccc2c(c1)c(C)c(C)n2CC(O)Cn1nc(C)c(Br)c1C` (configuration not stated), the percent span result is “inactive”.

With `CCOc1ccc(CNc2ccc(N3CCCC3)cc2)cc1`, the percent span entry is “inactive”. As for `Cc1ccc(/C=C/C(=O)c2ccccc(=O)c2O)c(C)c1`, the percent span result is “inactive”. Take `Cc1onc(-c2ccccc2Cl)c1C(=O)Nc1nn[nH]n1`: the percent span result was “inactive”.

In the case of `CS(=O)(=O)NN1C(=O)c2ccccc2NC1c1cccs1` (configuration not stated), the percent span entry was “inactive”. For `COc1ccc(C2=Nn3c(nnc3-c3ccccn3)SC2)cc1OC`, the percent span entry was “inactive”.

With `COc1ccc2nc(NC(=O)c3ccc(-c4cccc([N+](=O)[O-])c4)o3)sc2c1`, the percent span entry is “inactive”.

Source of the values: PubChem BioAssay AID1329 (NMMLSC, 2008).
